{"source": "patent US7767671B2", "about": "“3-Quinolinecarbonitrile protein kinase inhibitors” (Wyeth, priority 2004, dated 2010)", "target": "T1, recombinant human MEK 1 (MAPKK) / human ERK2 (MAPK) (Homo sapiens, UniProt P28482+Q02750)", "T1 construct": "GST; made in house", "T1 sequence (P28482 whole entry)": "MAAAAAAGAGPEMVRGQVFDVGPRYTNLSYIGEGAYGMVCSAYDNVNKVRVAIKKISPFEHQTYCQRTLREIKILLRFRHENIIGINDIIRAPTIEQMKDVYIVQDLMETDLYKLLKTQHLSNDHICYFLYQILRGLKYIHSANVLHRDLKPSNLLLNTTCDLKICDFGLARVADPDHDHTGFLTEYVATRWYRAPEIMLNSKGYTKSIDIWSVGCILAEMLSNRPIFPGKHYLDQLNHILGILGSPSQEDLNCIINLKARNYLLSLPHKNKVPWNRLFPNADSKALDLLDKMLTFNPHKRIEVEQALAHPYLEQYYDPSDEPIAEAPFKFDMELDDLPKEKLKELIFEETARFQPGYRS", "T1 sequence (Q02750 whole entry)": "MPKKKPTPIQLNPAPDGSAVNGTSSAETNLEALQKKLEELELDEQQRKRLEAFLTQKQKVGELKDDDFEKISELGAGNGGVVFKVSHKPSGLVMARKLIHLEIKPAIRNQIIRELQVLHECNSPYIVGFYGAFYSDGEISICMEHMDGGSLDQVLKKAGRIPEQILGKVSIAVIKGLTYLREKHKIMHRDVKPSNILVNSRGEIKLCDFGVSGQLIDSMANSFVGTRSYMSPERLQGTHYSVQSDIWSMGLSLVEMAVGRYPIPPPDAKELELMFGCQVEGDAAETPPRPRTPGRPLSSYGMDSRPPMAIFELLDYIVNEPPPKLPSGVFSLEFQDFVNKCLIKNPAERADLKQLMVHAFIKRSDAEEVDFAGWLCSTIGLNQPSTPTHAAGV", "assay": "Mitogen Activated Protein Kinase (MAPK) test procedure (Mek-Erk coupled)", "assay_type": "biochemical", "conditions": "MEK1-activated ERK2, 33P ATP, peptide substrate", "protocol": "Mitogen Activated Protein Kinase (MAPK) Test Procedure\nTo evaluate inhibitors of the MAP (mitogen activated protein) kinase a two component coupled standard pharmacological test procedure, which measures phosphorylation of a serine/threonine residue in an appropriate sequence in the substrate in the presence and absence of a putative inhibitor, is used. Recombinant human MEK 1 (MAPKK) is first used to activate recombinant human ERK2 (MAPK) and the activated MAPK (ERK) is incubated with substrate (myelin basic protein peptide (MBPP) or Myc peptide) in the presence of ATP, Mg^+2 and radiolabeled ^33P ATP. The phosphorylated peptide is captured on a P 81 phosphocellulose filter (paper filter or embedded in microtiter plate) ished and counted by scintillation methods.\nThe peptide substrates used in the assay are MBPP, peptide substrate (APRTPGGRR), or synthetic Myc substrate, (KKFELLPTPPLSPSRR•5 TFA). […]\nThe reaction is run as follows in 50 mM Tris kinase buffer, pH 7.4 in a reaction volume of 50 ul. […] The filters are briefly air dried before addition of scintillant and samples are counted in the appropriate scintillation counter set up for reading ^33P isotope. […]\nThe raw data is captured as counts per minute (cpm). […] Mean cpm data is tabulated by group and % inhibition by a test compound is calculated as (corrected cpm control−corrected·cpm sample/control)×100=% inhibition). […]", "data": [{"smiles": "COc1cc2c(Nc3ccc(Oc4ccccc4)cc3)c(C#N)cnc2cc1OCCN1CCC(N2CCCCC2)CC1", "note": "[Example 32, 7-(2-[1,4′]Bipiperidinyl-1′-yl-ethoxy)-6-methoxy-4-(4-phenoxy-phenylamino)-quinoline-3-carbonitrile]", "values": [{"measurement": "IC50", "result": 45, "unit": "nM"}]}]}
